Tests used:
Test in all cases: relative viability (nuclei count vs DMSO), 5 days (fraction); higher = more cells survive
[1] = compound: CC1=C(C(=NN1)C)CC2=C(C3=C(S2)N(C(=O)N(C3=O)C)CC(C)C)C(=O)N4C[C@@H](CO4)O + Cc1nc(NC(=O)N2CCC[C@H]2C(N)=O)sc1-c1ccnc(C(C)(C)C(F)(F)F)c1 [Alpelisib] (partner 2 µM)
How it was run: (§1)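 Lung cancer cell lines in 1536-well plates were dosed by pin tool the day after seeding, either with one drug alone or with a fixed anchor-drug dose plus five library-drug doses (not always all listed) in √10 steps. After 5 days, cells were fixed and their nuclei stained in one step (final 0.05% Triton X-100, 1% formaldehyde, 1 ug/ml Hoechst), then counted on 4× images. Relative viability is the nuclei count in treated wells divided by that in vehicle wells. Values are medians of duplicate plates.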

IDH-C35 + Palbociclib = compound: Cc1ccccc1C(C(=O)NC1CCCCC1)N(C(=O)Cn1ccnc1C)c1cccc(F)c1 [IDH-C35] + CC(=O)c1c(C)c2cnc(Nc3ccc(N4CCNCC4)cn3)nc2n(C2CCCC2)c1=O [Palbociclib] (partner 0.5 µM)
How it was run: as §1

IDH-C35 + Bortezomib = compound: Cc1ccccc1C(C(=O)NC1CCCCC1)N(C(=O)Cn1ccnc1C)c1cccc(F)c1 [IDH-C35] + CC(C)C[C@H](NC(=O)[C@H](Cc1ccccc1)NC(=O)c1cnccn1)B(O)O [Bortezomib] (partner 0.002 µM)
How it was run: as §1

IDH-C35 + AZD7762 = compound: Cc1ccccc1C(C(=O)NC1CCCCC1)N(C(=O)Cn1ccnc1C)c1cccc(F)c1 [IDH-C35] + NC(=O)Nc1cc(-c2cccc(F)c2)sc1C(=O)N[C@H]1CCCNC1 [AZD7762] (partner 0.2 µM)
How it was run: as §1

| Cell Line | relative viability ([1]; first compound 0.0025 µM) | relative viability ([1]; first compound 0.007906 µM) | relative viability ([1]; first compound 0.025 µM) | relative viability ([1]; first compound 0.07906 µM) | relative viability ([1]; first compound 0.25 µM) | relative viability (IDH-C35 + Palbociclib; first compound 0.08 µM) | relative viability (IDH-C35 + Palbociclib; first compound 0.253 µM) | relative viability (IDH-C35 + Palbociclib; first compound 0.8 µM) | relative viability (IDH-C35 + Palbociclib; first compound 2.53 µM) | relative viability (IDH-C35 + Palbociclib; first compound 8 µM) | relative viability (IDH-C35 + Bortezomib; first compound 0.08 µM) | relative viability (IDH-C35 + Bortezomib; first compound 0.253 µM) | relative viability (IDH-C35 + Bortezomib; first compound 0.8 µM) | relative viability (IDH-C35 + Bortezomib; first compound 2.53 µM) | relative viability (IDH-C35 + Bortezomib; first compound 8 µM) | relative viability (IDH-C35 + AZD7762; first compound 0.08 µM) | relative viability (IDH-C35 + AZD7762; first compound 0.253 µM) | relative viability (IDH-C35 + AZD7762; first compound 0.8 µM) | relative viability (IDH-C35 + AZD7762; first compound 2.53 µM) | relative viability (IDH-C35 + AZD7762; first compound 8 µM) |
| --- | --- | --- | --- | --- | --- | --- | --- | --- | --- | --- | --- | --- | --- | --- | --- | --- | --- | --- | --- | --- |
| BEN | 0.976 | 1.01 | 0.826 | 0.858 | 0.987 | 0.433 | 0.514 | 0.466 | 0.481 | 0.463 | 0.897 | 0.921 | 0.799 | 0.881 | 0.936 | 0.572 | 0.772 | 0.679 | 0.586 | 0.683 |
| NCI-H2170 | 0.918 | 0.868 | 0.705 | 0.819 | 0.786 | 0.382 | 0.377 | 0.425 | 0.385 | 0.379 |  |  |  |  |  | 1.04 | 0.919 | 0.899 | 0.786 | 0.757 |
| NCI-H1299 | 1.07 | 1.08 | 1.01 | 1.09 | 1.11 |  |  |  |  |  | 1.02 | 1.01 | 1.03 | 0.964 | 1.03 |  |  |  |  |  |
| EBC-1 | 0.973 | 0.973 | 0.765 | 0.822 | 0.814 |  |  |  |  |  | 0.544 | 0.575 | 0.493 | 0.613 | 0.506 |  |  |  |  |  |
| NCI-H2342 |  |  |  |  |  | 0.578 | 0.535 | 0.475 | 0.526 | 0.662 |  |  |  |  |  | 0.521 | 0.563 | 0.498 | 0.572 | 0.384 |
| ChaGo-K-1 |  |  |  |  |  | 0.921 | 0.907 | 0.92 | 0.898 | 0.983 | 0.956 | 0.942 | 1.09 | 0.939 | 1.03 | 0.97 | 0.928 | 0.899 | 0.819 | 0.818 |
| COR-L23 | 0.782 | 0.709 | 0.59 | 0.759 | 0.739 | 0.31 | 0.294 | 0.305 | 0.311 | 0.315 | 0.927 | 0.995 | 1.01 | 0.983 | 0.909 |  |  |  |  |  |
| COR-L 105 | 1.03 | 0.896 | 1.12 | 1.01 | 0.999 | 0.417 | 0.413 | 0.41 | 0.407 | 0.401 | 0.902 | 0.943 | 0.752 | 0.66 | 0.489 |  |  |  |  |  |
| LK-2 | 1.06 | 1.03 | 1.09 | 1.05 | 1.08 | 0.558 | 0.717 | 0.683 | 0.746 | 0.74 |  |  |  |  |  | 0.422 | 0.542 | 0.37 | 0.444 | 0.336 |
| NCI-H596 | 0.474 | 0.53 | 0.482 | 0.567 | 0.589 |  |  |  |  |  | 1.02 | 0.998 | 1.2 | 1.2 | 0.999 | 0.959 | 1.14 | 1.01 | 1.05 | 1.26 |
| NCI-H2023 | 0.621 | 0.635 | 0.593 | 0.58 | 0.622 | 0.398 | 0.34 | 0.378 | 0.384 | 0.357 | 0.998 | 1.13 | 1.01 | 0.349 | 0.911 |  |  |  |  |  |

From the supplement of paper PMC10307832
